The text below walks through data of publication PMC12436592 (Nature Communications, 2025).

Usually IC50 stands for the point on the concentration scale where inhibition reaches its midpoint.

“And” between values parts separate entries of the source, which are not always exact repeats. Equal values may be shown once.

One assay deals with T1, mP2X7R (Mus musculus, UniProt Q9Z1M0).
T1 construct: expressed in transfected cells
T1 sequence (Q9Z1M0 1-595): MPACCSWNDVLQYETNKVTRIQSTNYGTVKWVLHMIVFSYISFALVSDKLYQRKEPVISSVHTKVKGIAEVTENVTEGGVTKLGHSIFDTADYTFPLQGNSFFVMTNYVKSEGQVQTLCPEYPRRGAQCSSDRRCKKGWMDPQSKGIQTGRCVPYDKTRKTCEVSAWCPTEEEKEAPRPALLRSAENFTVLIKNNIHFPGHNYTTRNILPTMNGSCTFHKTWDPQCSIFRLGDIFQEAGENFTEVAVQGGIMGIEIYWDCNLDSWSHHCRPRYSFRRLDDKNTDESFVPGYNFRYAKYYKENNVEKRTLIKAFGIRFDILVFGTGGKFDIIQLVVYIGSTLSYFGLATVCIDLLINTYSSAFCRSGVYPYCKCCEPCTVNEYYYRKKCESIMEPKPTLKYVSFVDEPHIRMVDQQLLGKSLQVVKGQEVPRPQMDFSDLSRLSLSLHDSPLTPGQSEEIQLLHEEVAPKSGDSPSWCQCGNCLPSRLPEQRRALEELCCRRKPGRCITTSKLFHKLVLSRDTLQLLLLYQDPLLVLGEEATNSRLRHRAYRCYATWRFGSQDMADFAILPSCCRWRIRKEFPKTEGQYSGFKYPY
In words: Calcium influx assay, 1321N1 astrocytoma cells, BzATP EC80. The format is cell-based. The following applies: for IC50: 1321N1 cells, BzATP EC80, mean ± SD. From the text: (§1) . For 1321N1 astrocytoma cells stably expressing the human, rat, or mouse P2X7Rs, or hP2X2Rs or hP2X4Rs, the fluorescent Ca^2+-chelating dye Fluo-4 acetoxymethyl ester (Fluo-4 AM, Thermo Fisher Scientific, Dreieich, Germany) was used. For 1321N1 astrocytoma cell lines recombinantly expressing the hP2X1Rs or hP2X3Rs, the FLIPR® Calcium 5 Assay Kit (Molecular Devices, San José, CA, USA) was employed. Human, rat, and mouse P2X7Rs as well as hP2X1Rs, hP2X2Rs, hP2X3Rs, and hP2X4Rs were recombinantly expressed in 1321N1 astrocytoma cells using a retroviral expression system[72]–[74].
(§2) On the first day, 45,000 cells per well (30,000 cells for the human P2X3 receptor-expressing cells) were seeded into a 96-well polystyrene microplate with a black, flat bottom in a final volume of 200 µL. After overnight incubation at 37 °C and 10% CO2 (5% CO2 for the human P2X3R-expressing cell line), the medium was removed by inverting the plate, and the cells were loaded with dye solution. Hanks’ balanced salt solution (HBSS, Thermo Fisher Scientific, Dreieich, Germany) was used as the assay buffer for human P2X1R, P2X2R, P2X3R, and P2X4R. For the P2X7Rs, a different assay buffer was used: 150 mM sodium-glutamate, 5 mM KCl, 0.5 mM CaCl2, 0.1 mM MgCl2, 10 mM D-glucose, 25 mM 4-(2-hydroxyethyl)-1-piperazineethanesulfonic acid (HEPES), pH 7.4. The dye solutions were freshly prepared. The Fluo-4 AM solution contained 3 µM of Fluo-4 AM in assay buffer and 1% of the non-ionic detergent Pluronic F-127® (Sigma-Aldrich, Taufkirchen, Germany). The Calcium 5 dye, used for hP2X1Rs and hP2X3Rs, was prepared in HBSS buffer. Cells were loaded with Fluo-4 AM and incubated for 1 h at room temperature with gentle shaking (100 rpm), while those loaded with the Calcium 5 dye were incubated for 1 h at 37 °C. After incubation, the dye solution was carefully removed from the plate, and buffer was added to the cells for the evaluation of agonists. […] The agonist solution was prepared in a 96-well transparent plate, obtaining the respective EC80 values. As a control, assay buffer without the test compound was used. After 30 min of incubation with antagonist, the plates were measured using a fluorescence imaging plate reader NOVOstar (BMG Labtech GmbH, Offenburg, Germany) at an excitation wavelength of 485 nm and an emission wavelength of 520 nm, for 30 s at 0.4 s intervals. Calcium influx measurements were then initiated by automatic addition of 20 µL of agonist solution by the plate reader’s pipetting device. Data were analyzed using Microsoft Excel and GraphPad Prism (Version 8.0, San Diego, CA, USA). EC80 and IC50 values were calculated using nonlinear regression with a sigmoidal dose-response equation.

The test system of the next assay is T2, hP2X2R.
T2 construct: expressed in transfected cells
The experiment in a line: Calcium influx assay, 1321N1 astrocytoma cells, ATP EC80. The settings on record: 10 μM antagonist, ATP 1000 nM. The format is cell-based, human.
Source text: as §1, §2

Another assay relates to T3, hP2X4R.
T3 construct: expressed in transfected cells
The assay is described as above. The format is cell-based, human. The following applies: 10 μM antagonist, ATP 300 nM.
Source text: as §1, §2

A further assay concerns the target T4, hP2X7R (Homo sapiens, UniProt Q99572).
T4 sequence (Q99572 1-595): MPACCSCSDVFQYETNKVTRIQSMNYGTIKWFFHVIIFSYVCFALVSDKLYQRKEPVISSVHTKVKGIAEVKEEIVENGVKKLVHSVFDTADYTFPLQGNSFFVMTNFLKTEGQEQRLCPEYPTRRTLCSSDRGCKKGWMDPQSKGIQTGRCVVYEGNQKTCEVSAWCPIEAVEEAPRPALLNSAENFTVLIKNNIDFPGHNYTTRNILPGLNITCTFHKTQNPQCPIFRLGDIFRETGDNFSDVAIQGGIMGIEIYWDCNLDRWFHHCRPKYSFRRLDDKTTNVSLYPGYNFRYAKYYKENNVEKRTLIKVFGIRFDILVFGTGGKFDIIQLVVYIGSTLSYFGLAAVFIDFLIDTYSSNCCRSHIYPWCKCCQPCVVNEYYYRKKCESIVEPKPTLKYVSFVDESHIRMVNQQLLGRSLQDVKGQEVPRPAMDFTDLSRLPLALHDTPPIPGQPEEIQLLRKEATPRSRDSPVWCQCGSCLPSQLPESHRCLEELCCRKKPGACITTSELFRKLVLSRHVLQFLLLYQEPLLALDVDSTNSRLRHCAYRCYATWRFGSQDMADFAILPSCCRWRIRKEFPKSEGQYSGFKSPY
In words: Calcium influx assay, 1321N1 astrocytoma cells, BzATP EC80. Details: expressed in transfected cells. The following applies: for IC50: 1321N1 cells, BzATP EC80, mean ± SD. The format is cell-based.
Source text: For 1321N1 astrocytoma cells stably expressing the human, rat, or mouse P2X7Rs, or hP2X2Rs or hP2X4Rs, the fluorescent Ca^2+-chelating dye Fluo-4 acetoxymethyl ester (Fluo-4 AM, Thermo Fisher Scientific, Dreieich, Germany) was used. For 1321N1 astrocytoma cell lines recombinantly expressing the hP2X1Rs or hP2X3Rs, the FLIPR® Calcium 5 Assay Kit (Molecular Devices, San José, CA, USA) was employed. Human, rat, and mouse P2X7Rs as well as hP2X1Rs, hP2X2Rs, hP2X3Rs, and hP2X4Rs were recombinantly expressed in 1321N1 astrocytoma cells using a retroviral expression system[72]–[74].
as §2

With `O=C(NNc1ccccc1Cl)C12CC3CC(CC(C3)C1)C2` [UB-ALT-P30, reference compound], the activity at 0.003 µM at mP2X7R (1321-N1, Log(c) M -8.52288, read-out: normalized calcium signal, mP2X7R IC50 curve) stood at 101%. The concentration for half-maximal inhibition (IC50) was 148 ± 27 nM on mP2X7R; 17.8 nM and 18 nM at hP2X7R. The “normalized calcium signal, mP2X7R IC50 curve” value on mP2X7R (Log(c) M -7, 0.1 µM) was 58.6062 and 69.2329 and 80.2999 and 70.4572 and 91.3507 and 85.9323 and 94.1322; on mP2X7R (Log(c) M -7.52288, 0.03 µM) it was 92.3415 and 79.1265 and 114.599 and 132.12 and 97.8989 and 119.546; at mP2X7R (Log(c) M -8, 0.01 µM), 92.8335 and 100.155 and 89.6254 and 122.632 and 113.342 and 120.308; at mP2X7R (Log(c) M -8.52288, 0.003 µM), 96.3012 and 101.363. In addition, the “% inhibition ± SD at 10 μM, hP2X2R” value in the assay with hP2X2R came out at 29 ± 7%. Besides, the “% inhibition ± SD at 10 μM, hP2X4R” value with hP2X4R came to 44 ± 14%. The “normalized calcium signal, hP2X7R IC50 curve” value on hP2X7R (Log(c) M -9, 0.001 µM) was 71.6317 and 73.6475 and 92.6717 and 89.8426 and 81.3931.
Regarding `CC12CC3CC1(C)C1(C)CC3(C(=O)NNc3ccccc3Cl)CC21C` [UB-MBX-46], the 50% inhibitory concentration (IC50) at mP2X7R was 4.52 ± 0.72 nM; at hP2X7R, 0.514 ± 0.035 nM. Besides, the “normalized calcium signal, mP2X7R IC50 curve” value is 72.2751 and 83.0134 and 65.4518 and 88.1956 and 92.7904 and 87.7744 and 76.3105 and 64.8252 at mP2X7R (Log(c) M -8.52288, 0.003 µM); 110.597 and 115.455 and 88.4 and 102.046 and 107.58 and 103.403 and 110.382 on mP2X7R (Log(c) M -9, 0.001 µM); 115.86 and 127.811 and 92.8545 and 89.4511 and 104.887 and 106.902 and 87.8281 and 105.571 at mP2X7R (Log(c) M -9.52288, 0.0003 µM). At mP2X7R (calcium influx), the “times more potent than UB-ALT-P30 on the mP2X7R” value is ~ 33 x. Besides, in the assay on hP2X2R, the “% inhibition ± SD at 10 μM, hP2X2R” value was determined as 15 ± 9%. The “% inhibition ± SD at 10 μM, hP2X4R” value in the assay on hP2X4R amounted to 41 ± 19%. Further, the activity at 0.0003 µM at hP2X7R (1321-N1, Log(c) M -9.52288, read-out: normalized calcium signal, hP2X7R IC50 curve) turned out to be 82.4%. In addition, the activity at 0.0001 µM on hP2X7R (1321-N1, Log(c) M -10, read-out: normalized calcium signal, hP2X7R IC50 curve) was 110%. Also, on hP2X7R (1321-N1, Log(c) M -10.5229, read-out: normalized calcium signal, hP2X7R IC50 curve), the activity at 30 pM was 100%. Also, the “normalized calcium signal, hP2X7R IC50 curve” value is 83.2395 and 75.8405 and 85.4678 and 91.9881 on hP2X7R (Log(c) M -9.52288, 0.0003 µM); 91.6497 and 103.346 and 103.977 at hP2X7R (Log(c) M -10, 0.0001 µM). Also, the “times more potent than UB-ALT-P30 on the hP2X7R” value at hP2X7R (calcium influx) was ~ 35 x.
